These are literature values, as cited in patent publication US20120184023A1, “Method of Preparing A Glycoside Of A Mono- Or Diacylglycerol Product From A Plant Material” (HYBEN VITAL LICENS APS, priority 2006, published 2012).

The subject of data set [1] is poly-morphonuclear monocytes. The conditions noted are these: reported in WO 03/043613.
The subject of the next data set is mononuclear leukocytes. The note with it: reported in WO 03/043613.

With `CC/C=C\C/C=C\C/C=C\CCCCCCCC(=O)OCC(CO[C@@H]1O[C@H](CO)[C@H](O)[C@H](O)[C@H]1O)OC(=O)CCCCCCC/C=C\C/C=C\C/C=C\CC` (stereo partly drawn) [GOPO, 3-β-D-galactopyranosyloxy-2-(octadeca-9Z,12Z,15Z-trienoyloxy) propanyloctadeca-9Z,12Z,15Z-trienoate], the “chemiluminescence of poly-morphonuclear monocytes” value in data set [1] is reported as “alleviating chemiluminescence”. Besides, in the data set on mononuclear leukocytes, the “chemotaxis of mononuclear leukocytes” value is recorded as “alleviating”.
